The values below come from PubChem BioAssay (NCI).

Test systems include M14 melanoma; NCI-H23 lung; 786-0 renal; OVCAR-3 ovarian; ACHN renal; UACC-62 melanoma; CCRF-CEM leukemia; HT29 colon; SF-539 CNS; MALME-3M melanoma.
Holding throughout (assay): NCI tumour cell line growth inhibition, 48 h

Structures are written as SMILES.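 Step 1: Grow cells in 96-well plates. Step 2: Expose to compound for 48 hours at 5 concentrations. Step 3: Interpolate endpoints linearly; if unreached, use highest concentration. GI50: concentration for 50% inhibition of growth. The concentration for full growth arrest is given as TGI.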

On to `N#CC1=C(N)NC(=S)NC1c1ccc(-c2ccc(-c3nc4ccccc4o3)cc2)s1` (configuration not stated), for which the GI50 is 12.6 µM in the test with M14 melanoma; 12 µM in the test with NCI-H23 lung; 11.1 µM with 786-0 renal; 10.7 µM in the test on OVCAR-3 ovarian; 6.54 µM with ACHN renal; 9.2 µM in the test on UACC-62 melanoma. For the same compound, the TGI was 30.3 µM with M14 melanoma; 27.4 µM with NCI-H23 lung; 22.4 µM with 786-0 renal; 37.2 µM in the test with OVCAR-3 ovarian; 12.9 µM in the test on ACHN renal; 21.3 µM in the test with UACC-62 melanoma.
For the compound `COc1ccc(C(C)c2cc(OC)c(OC)c(OC)c2)cc1` (configuration not stated), the GI50 in the test with CCRF-CEM leukemia is 0.182 µM; with NCI-H23 lung, 0.292 µM; in the test with HT29 colon, 0.107 µM; in the test on 786-0 renal it was 0.213 µM; in the test with OVCAR-3 ovarian it was 0.0889 µM; in the test on ACHN renal it was 0.341 µM. The GI50 in the test on UACC-62 melanoma was 0.27 µM. The TGI was above 50 µM in the test on CCRF-CEM leukemia; above 50 µM in the test with NCI-H23 lung; above 50 µM in the test with HT29 colon; above 50 µM in the test with 786-0 renal; 0.384 µM in the test with OVCAR-3 ovarian; above 50 µM in the test with ACHN renal. Besides, the TGI in the test with UACC-62 melanoma was above 50 µM.
Take `C/C=C/C/C=C/[C@H](C)C[C@H](O)[C@@H]1C[C@@H]2O[C@H]2/C=C/[C@@H]2OC(C)(C)O[C@H]2/C=C/C[C@H](C)CC(=O)O1`: the GI50 with SF-539 CNS was 26.3 µM; in the test with CCRF-CEM leukemia it was 2.78 µM; in the test on M14 melanoma, 12.9 µM; in the test on NCI-H23 lung, 6.08 µM; with HT29 colon, 12 µM; with 786-0 renal, 69.7 µM. Also, the GI50 with OVCAR-3 ovarian was 12.4 µM; with ACHN renal, 6.05 µM; with UACC-62 melanoma it was 4.31 µM. In addition, the TGI with SF-539 CNS is above 100 µM; with CCRF-CEM leukemia, 56.4 µM; with M14 melanoma it was above 100 µM; in the test on NCI-H23 lung, above 100 µM; in the test with HT29 colon, above 100 µM; in the test with 786-0 renal, above 100 µM. Moreover, the TGI is above 100 µM in the test on OVCAR-3 ovarian, above 100 µM in the test on ACHN renal and 20.2 µM with UACC-62 melanoma.
For the compound `O=S(=O)(NCCNc1nccc(-c2c(-c3ccc(F)c(O)c3)nc3sccn23)n1)c1ccc(Cl)cc1`, the GI50 in the test with SF-539 CNS was 5.09 µM; with MALME-3M melanoma, 1.69 µM; with NCI-H23 lung, 3.56 µM; in the test with 786-0 renal it was 3.38 µM; with OVCAR-3 ovarian it was 2.56 µM; in the test with ACHN renal, 1.4 µM. Moreover, the GI50 in the test with UACC-62 melanoma was 0.967 µM. In addition, the TGI is 11.9 µM with SF-539 CNS; 22.7 µM in the test with MALME-3M melanoma; 12.2 µM with NCI-H23 lung; 13.6 µM with 786-0 renal; 14.9 µM in the test on OVCAR-3 ovarian; above 50 µM with ACHN renal. The TGI in the test with UACC-62 melanoma worked out at 13 µM.
For the compound `CC(=O)Oc1ccc2c(c1)[C@@]1(C)CCCC(C)(C)[C@@H]1CC2`, the GI50 is 87.4 µM with CCRF-CEM leukemia; 18.2 µM with M14 melanoma; 19.8 µM in the test with NCI-H23 lung; 31.7 µM with HT29 colon; 18.1 µM in the test with 786-0 renal; 15.8 µM in the test on OVCAR-3 ovarian. For the same compound, the GI50 is 19.1 µM in the test on ACHN renal and 17.6 µM with UACC-62 melanoma. Moreover, the TGI in the test with CCRF-CEM leukemia is above 100 µM; in the test with M14 melanoma, 33.7 µM; in the test with NCI-H23 lung, 37.6 µM; with HT29 colon, above 100 µM; with 786-0 renal, 32.8 µM; with OVCAR-3 ovarian, 41.1 µM. The results for the TGI with ACHN renal and in the test with UACC-62 melanoma were 33.5 µM and 32.8 µM, respectively.
For `N#Cc1cnc2cc(OC[C@@H](O)CO)c(NC(=O)C3CCCC3)cc2c1Nc1ccc(OCc2cccc(F)c2)c(Cl)c1`, the GI50 is 1.15 µM in the test with SF-539 CNS; 0.48 µM in the test with CCRF-CEM leukemia; 0.765 µM in the test with M14 melanoma; 1.87 µM with NCI-H23 lung; 1.39 µM in the test on HT29 colon; 4.51 µM in the test with 786-0 renal. In addition, the GI50 is 0.874 µM with OVCAR-3 ovarian and 3.01 µM in the test with ACHN renal. Also, the TGI stood at 2.93 µM in the test with SF-539 CNS; 2.19 µM with CCRF-CEM leukemia; 1.61 µM with M14 melanoma; 11.9 µM in the test on NCI-H23 lung; 3.84 µM with HT29 colon; 11.7 µM in the test on 786-0 renal. For the same compound, the values for the TGI in the test on OVCAR-3 ovarian and with ACHN renal were 1.82 µM and above 50 µM, respectively.
`[N-]=[N+]=NCCCn1c2c(c3ccc([N+](=O)[O-])cc3c1=O)C(=O)c1cc3c(cc1-2)OCO3`: the GI50 in the test on SF-539 CNS is below 0.0171 µM; with CCRF-CEM leukemia, below 0.01 µM; in the test with M14 melanoma it was below 0.01 µM; in the test on NCI-H23 lung, below 0.01 µM; in the test with 786-0 renal it was below 0.0141 µM; in the test with ACHN renal it was below 0.0161 µM. In addition, the GI50 in the test on UACC-62 melanoma is below 0.0211 µM. In addition, the TGI in the test on SF-539 CNS was below 0.0363 µM; with CCRF-CEM leukemia, 0.0679 µM; in the test on M14 melanoma, below 0.01 µM; with NCI-H23 lung, below 0.01 µM; in the test on HT29 colon it was above 100 µM; with 786-0 renal, below 0.025 µM. Besides, the TGI with OVCAR-3 ovarian amounted to 2.87 µM; with ACHN renal, 0.459 µM; with UACC-62 melanoma, 0.782 µM.
For `O=c1[nH]c2cc([N+](=O)[O-])ccc2nc1/C(=N/Nc1ccccc1)C(O)c1ccco1` (configuration not stated), the TGI in the test with SF-539 CNS, in the test with CCRF-CEM leukemia, in the test with MALME-3M melanoma, in the test with M14 melanoma, in the test with HT29 colon and in the test on 786-0 renal was above 100 µM throughout. Further, the TGI in the test on ACHN renal and with UACC-62 melanoma was above 100 µM in each case.
As to `C=C1c2ccccc2C(=O)c2c1c1c(C(=O)OC)c(OC(=O)OCc3ccc([N+](=O)[O-])cc3)ccc1n2Cc1ccccc1`, the GI50 is 6.47 µM in the test on SF-539 CNS; 1.78 µM in the test with CCRF-CEM leukemia; 36 µM with MALME-3M melanoma; 27.6 µM in the test on M14 melanoma; 4.22 µM in the test with NCI-H23 lung; 7.17 µM in the test on 786-0 renal. Further, the figures for the GI50 in the test with OVCAR-3 ovarian, with ACHN renal and in the test with UACC-62 melanoma were 2.39 µM, 55.9 µM and 10.5 µM, respectively. Further, the TGI in the test with SF-539 CNS is 32.3 µM; with CCRF-CEM leukemia, 6.83 µM; with MALME-3M melanoma it was above 100 µM; in the test on M14 melanoma, above 100 µM; with NCI-H23 lung it was 17.9 µM; with 786-0 renal, 26 µM. For the same compound, the TGI is 8.05 µM in the test on OVCAR-3 ovarian, above 100 µM in the test with ACHN renal and 22.6 µM with UACC-62 melanoma.
